Test results reported in US20110088107A1, “COMPOSITIONS AND METHODS FOR DERIVING OR CULTURING PLURIPOTENT CELLS” (priority 2009, published 2011).

Experiments:
naive-hESCs/hiPSCs = test: Signaling dependence of pluripotent cell lines, naive-hESC/hiPSC; type: cell-based, human; settings: grown in PD/CH/FK/LIF, inhibitor or factor added
Description: (§1) Pluripotent cells were equally divided and plated on feeders in the indicated growth medium in which these cell lines are normally maintained, and 36 hours later the wells were supplemented with the indicated inhibitors or growth factors. After seven days, wells were fixed and stained to determine the relative percentage of colonies positive for pluripotency markers. SSEA1 staining was used for mouse stem cells. Colony formation was normalized to an internal control “Growth medium” without inhibitors (first left column). Normalized percentages lower than 5% are defined as “sensitivity” to the presence of the supplemented inhibitor. (B-C) Western blot analysis of total ERK1/2, phosphorylated ERK1/2 (pERK1/2) and phosphorylated Stat3 (pStat3). WIBR3 hESC and C1 hiPSC were grown in traditional bFGF/Activin containing media while naive-hESC/hiPSCs were grown in N2B27 PD/CH/FOR/LIF. ‘2×LIF’ indicates two fold increase in LIF concentration. (D) LIF/Stat3 is required for stabilization of naive-hESC/hiPSCs. Naïve NOD mESCs, WIBR3.5 and WIBR3.1 naive-hESC, and C1 naïve-hiPSCs were electroporated with a pBRY-CAGGS-flox-DsRedT4-IP control plasmid, a plasmid encoding a dominant negative Stat3 Y705F mutant (Stat3-DN), or a plasmid Stat3-C constitutively active mutant (pBRY-Stat3-CA). Cells were passaged three times in the presence of puromycin. After 20 days, colonies positive for pluripotency markers were counted and normalized to colonies from cells electroporated with empty vector (n=3 replicates for each condition). (E) RT-PCR expression of early germ cell markers in the presence or absence of BMP4/7/8 cytokines for 7 days. (F) Representative FISH analysis for XIST RNA (red) and Cot1 nuclear RNA (green). Pri-WIBR3.2 cell line was analyzed after passaging in conventional bFGF/serum-containing human ESC growth conditions. Numbers indicate average percentage of XIST positive nuclei counted.
(§2) Small molecules and cytokines were purchased from Tocris, Calbiochem or Sigma, and were supplemented as indicated at the following final concentration: JAK inhibitor (JAKi, 6 μM), Kenpaullone (KP, 5 μM), PD0325901 (PD, 1 μM); CHIR99021 (CH, […]), Forskolin (FK, 10 μM), FGF4-Receptor inhibitors PD173074 (0.1 μM) and SU5401 (2 μM); TGFβ/ALK inhibitors A83-01 (1 μM), RepSox (1 μM), ALK inhibitor (ALKi—SB431542, 2 μM); AICAR (0.5 mM); BixO1294 (1 μM); BayK8644 (1 μM); recombinant human BMP4 (10 ng/ml), recombinant human IL-6 (10 ng/ml), recombinant human TGFβ (500 ng/ml), Media with inhibitors was routinely replaced every 48 hours to sustain activity of compounds.

hESCs = test: Signaling dependence of pluripotent cell lines, conventional hESCs; type: cell-based, human; settings: normal growth medium, inhibitor or factor added
Description: Pluripotent cells were equally divided and plated on feeders in the indicated growth medium in which these cell lines are normally maintained, and 36 hours later the wells were supplemented with the indicated inhibitors or growth factors. After seven days, wells were fixed and stained to determine the relative percentage of colonies positive for pluripotency markers. SSEA1 staining was used for mouse stem cells. Colony formation was normalized to an internal control “Growth medium” without inhibitors (first left column). […] (B-C) Western blot analysis of total ERK1/2, phosphorylated ERK1/2 (pERK1/2) and phosphorylated Stat3 (pStat3). WIBR3 hESC and C1 hiPSC were grown in traditional bFGF/Activin containing media while naive-hESC/hiPSCs were grown in N2B27 PD/CH/FOR/LIF. ‘2×LIF’ indicates two fold increase in LIF concentration. […] Cells were passaged three times in the presence of puromycin. […] (E) RT-PCR expression of early germ cell markers in the presence or absence of BMP4/7/8 cytokines for 7 days. (F) Representative FISH analysis for XIST RNA (red) and Cot1 nuclear RNA (green). Pri-WIBR3.2 cell line was analyzed after passaging in conventional bFGF/serum-containing human ESC growth conditions.

mEpiSCs = test: Signaling dependence of pluripotent cell lines, mEpiSCs; type: cell-based, mouse; settings: normal growth medium, inhibitor or factor added
Description: as §1, §2

mESCs = test: Signaling dependence of pluripotent cell lines, mESCs; type: cell-based, mouse; settings: normal growth medium, inhibitor or factor added
Description: Pluripotent cells were equally divided and plated on feeders in the indicated growth medium in which these cell lines are normally maintained, and 36 hours later the wells were supplemented with the indicated inhibitors or growth factors. After seven days, wells were fixed and stained to determine the relative percentage of colonies positive for pluripotency markers. SSEA1 staining was used for mouse stem cells. Colony formation was normalized to an internal control “Growth medium” without inhibitors (first left column). Normalized percentages lower than 5% are defined as “sensitivity” to the presence of the supplemented inhibitor. (B-C) Western blot analysis of total ERK1/2, phosphorylated ERK1/2 (pERK1/2) and phosphorylated Stat3 (pStat3). WIBR3 hESC and C1 hiPSC were grown in traditional bFGF/Activin containing media while naive-hESC/hiPSCs were grown in N2B27 PD/CH/FOR/LIF. ‘2×LIF’ indicates two fold increase in LIF concentration. (D) LIF/Stat3 is required for stabilization of naive-hESC/hiPSCs. Naïve NOD mESCs, WIBR3.5 and WIBR3.1 naive-hESC, and C1 naïve-hiPSCs were electroporated with a pBRY-CAGGS-flox-DsRedT4-IP control plasmid, a plasmid encoding a dominant negative Stat3 Y705F mutant (Stat3-DN), or a plasmid Stat3-C constitutively active mutant (pBRY-Stat3-CA). Cells were passaged three times in the presence of puromycin. After 20 days, colonies positive for pluripotency markers were counted and normalized to colonies from cells electroporated with empty vector (n=3 replicates for each condition). (E) RT-PCR expression of early germ cell markers in the presence or absence of BMP4/7/8 cytokines for 7 days. (F) Representative FISH analysis for XIST RNA (red) and Cot1 nuclear RNA (green). Pri-WIBR3.2 cell line was analyzed after passaging in conventional bFGF/serum-containing human ESC growth conditions. Numbers indicate average percentage of XIST positive nuclei counted. […]

NOD-iPS cells = test: Dox-independent propagation of Dox-dependent NOD-iPS cells in supplemented mESM; type: cell-based, mouse (NOD); settings: mESM lacking Dox
Description: FIGS. 4(A)-4(H) illustrate generation of genetically unmodified germline competent NOD ES cells. (A) Experimental outline for derivation of iPS lines that grow in the presence of small molecules and in the absence of Dox. Representative images of NOD iPS lines growing in mESM supplemented with the indicated small molecules or growth factors. (B) Single-cell cloning efficiency of NOD iPS cells in different growth conditions. WT or NOD-iPS cells grown in mESM and KP were sorted in 96 well plates and cultured in mESM supplemented with small molecules. The number of wells containing Nanog+ colonies was counted after 6 days. Efficiencies were normalized to that of C57B6/129F1-iPS cells (“permissive” controls) plated in mESM and defined as 100%. SD for average efficiencies from 2 experiments are shown. Student test P value compares KP/CH to PD/CH mESM conditions for NOD iPS cells. (C) Expansion of day E3.5 ICM derived NOD ES cells in the presence of KP, KP/CH or PD/CH and derivation of stable ES lines. Images of initial colonies observed at passage 2 after embryo dissociation are shown together with representative images at later passages. (D) Karyotype of NOD ES lines. (E) Immunostaining of NOD ES lines for pluripotency markers. Inhibitors used during cell line derivation and propagation are indicated. (F) Chimerism in adult mice generated from the indicated cell lines is evident by the presence of agouti (brown) and albino coat color originating from the NOD background. […] (G) Real-Time PCR analysis for endogenous expressed Oct4, c-Myc and Klf4 genes in NOD iPS and ES cells grown in the indicated conditions. Relative expression levels are normalized to levels detected in control 129 ES cells. (H) Southern analysis indicating correct targeting of the endogenous Nanog locus in NOD ES cells with Nanog-GFP knock-in targeting construct.
Small molecules have been identified to replace some of the reprogramming factors in iPS derivation (Huangfu et al., 2008; Shi et al., 2008). […]

C1.2 hiPSCs = test: Screen for factors stabilizing C1 hiPSCs upon DOX withdrawal; type: cell-based, human; settings: C1.2 hiPSCs without DOX
Description: FIGS. 9(A)-9(D) show the in vitro stabilization of naïve human pluripotent stem cells. […] C1 cells were plated on feeders in N2B27 media with the indicated factors. p-values using student's t-test indicates significant change in comparison to cells grown in DOX/PD/CH/LIF conditions, which were defined as a control (100% survival). (B) Scheme for reverting hESCs to generate “naive-hESCs”. (C) Representative images of WIBR3 hESCs at different stages of the reversion process in PD/CH/LIF/FK (P indicates passage number). (D) Representative images of naive-WIBR3.5 hESC line, derived by plating WIBR3 hESCs in PD/CH/FK/LIF medium without transfection of exogenous factors. Magnifications of captured images are indicated. Naïve human pluripotent cells were grown in serum-free N2B27 based media. […] Throughout the manuscript, indicated passage numbers of naïve-hiPSC/hESCs indicates number of passages counted after induction of the naïve state. […]

Compound | effect on pluripotency of naive-hESCs/hiPSCs (naive-hESCs/hiPSCs) | effect on pluripotency of conventional hESCs (hESCs) | effect on pluripotency of mEpiSCs (mEpiSCs) | effect on pluripotency of mESCs (mESCs) | Dox-independent growth of pluripotent NOD-iPS cells (NOD-iPS cells) | role in the 13i+LIF cocktail on removing one inhibitor at a time (C1.2 hiPSCs)
Cc1cccc(-c2nn(C(=S)Nc3ccccc3)cc2-c2ccnc3ccccc23)n1 [A83-01] | maintained their pluripotent state | rapidly differentiated | rapidly differentiated | maintained their pluripotent state |  | 
Cc1c[nH]c(-c2cnc(NCCNc3ccc(C#N)cn3)nc2-c2ccc(Cl)cc2Cl)n1 [CHIR99021] |  |  |  |  | supported Dox-independent growth | crucial components
CCN(CC)CCCCNc1ncc2cc(-c3cc(OC)cc(OC)c3)c(NC(=O)NC(C)(C)C)nc2n1 [PD173074] | but not of naive-hESCs/hiPSCs or mESCs | resulted in the differentiation | resulted in the differentiation |  |  | 
O=C(NOC[C@H](O)CO)c1ccc(F)c(F)c1Nc1ccc(I)cc1F [PD] |  | could not be propagated |  |  |  | crucial components
TGFβ | differentiated |  |  | differentiated |  | 
Wnt3a |  |  |  |  | supported Dox-independent growth | 
